According to publication PMC12412324, “Design, synthesis, and evaluation of novel pinane-based thiazolidione derivatives with anti-glioblastoma activity” (Journal of Enzyme Inhibition and Medicinal Chemistry, 2025):

Key:
Assay type in all cases: cell-based
T98G = assay: CCK-8 cell viability assay, T98G; conditions: CCK-8, 72 h, mean ± SD of three independent experiments
Procedure: (§1) The U87MG cell line (catalogue iCell-h224) and U251MG cell line (catalogue iCell-h219) were purchased from iCell Bioscience Inc (Shanghai) cell bank. T98G cell line was obtained from Yining Zhang’s group. All cells were cultured in DMEM supplemented with 10% (v/v) FBS and penicillin-streptomycin in a humidified incubator at 37 °C under 5% CO2. The different compounds were dissolved in DMSO at the concentration of 10 mM and diluted in serum-free medium. The GBM cells were seeded into 96-well microplates at the density of 6000 cells/well and incubated for 24 h. Fresh media supplemented with different concentrations of the compounds were added, and the cells were cultured for 72 h. The CCK-8 reagent (TargetMol, C0005) was added to each well and the cells were incubated for 4 h at 37 °C. […] the absorbance was measured at […] using a microplate reader (Genios Tecan). An untreated control group was included and its viability was set as 100%. IC50 value of the two probes was calculated using GraphPad Prism 5.0.

U87 = assay: CCK-8 cell viability assay, U87; conditions: CCK-8, 72 h, mean ± SD of three independent experiments
Procedure: as §1

LO2 = assay: CCK-8 cytotoxicity, normal human cell line LO2
U251 = assay: CCK-8 cell viability assay, U251; conditions: CCK-8, 72 h, mean ± SD of three independent experiments
Procedure: as §1

[1] = L02, mean ± SD of three independent experiments

Compound | IC50 (T98G; Homo sapiens, T98G, 72 h) | IC50 (U87; Homo sapiens, U-87 MG, 72 h) | IC50 (LO2; [1]) | IC50 (U251; Homo sapiens, U-251, 72 h) | IC50 (T98G) | IC50 (U87) | IC50 (LO2; mean ± SD of three independent experiments) | IC50 (U251)
COc1ccc(C=C2SC(=NN=CC3=CCC4CC3C4(C)C)N(C)C2=O)cc1 (stereo not shown) [C1, 2-(((6,6-Dimethylbicyclo[3.1.1]hept-2-en-2-yl)methylene)hydrazineylidene)-5–(4-methoxybenzylidene)-3-methylthiazolidin-4-one] | 9.93 ± 0.11 µM | 13.5 ± 0.43 µM | > 50 µM | 12.1 ± 0.31 µM | – | – | – | –
COc1ccc(C=C2SC(=NN=CC3=CCC4CC3C4(C)C)N(C)C2=O)cc1 (stereo not shown) [C2, 2-(((6,6-Dimethylbicyclo[3.1.1]hept-2-en-2-yl)methylene)hydrazineylidene)-5–(4-methoxybenzylidene)-3-methylthiazolidin-4-one] | – | – | – | – | 10.1 ± 0.8 µM | 11.2 ± 0.26 µM | > 50 µM | 14 ± 0.71 µM
CSc1ccc(C=C2SC(=NN=CC3=CCC4CC3C4(C)C)N(C)C2=O)cc1 (stereo not shown) [C3, 2-(((6,6-Dimethylbicyclo[3.1.1]hept-2-en-2-yl)methylene)hydrazineylidene)-3-methyl-5–(4-(methylthio)benzylidene)thiazolidin-4-one] | 16.7 ± 0.67 µM | 12.3 ± 0.65 µM | > 50 µM | 15.2 ± 0.32 µM | – | – | – | –
CN1C(=O)C(=Cc2ccc(N(C)C)cc2)SC1=NN=CC1=CCC2CC1C2(C)C (stereo not shown) [C4, 5–(4-(Dimethylamino)benzylidene)-2-(((6,6-dimethylbicyclo[3.1.1]hept-2-en-2-yl)methylene)hydrazineylidene)-3-methylthiazolidin-4-one] | 8.8 ± 0.31 µM | 7.56 ± 0.76 µM | > 50 µM | 9.7 ± 0.64 µM | – | – | – | –
COc1cc(C=C2SC(=NN=CC3=CCC4CC3C4(C)C)N(C)C2=O)ccc1O (stereo not shown) [C6, 2-(((6,6-Dimethylbicyclo[3.1.1]hept-2-en-2-yl)methylene)hydrazineylidene)-5–(4-hydroxy-3-methoxybenzylidene)-3-methylthiazolidin-4-one] | 7.5 ± 0.98 µM | 9.37 ± 0.43 µM | > 50 µM | 10.2 ± 0.65 µM | – | – | – | –
CN1C(=O)C(=Cc2ccc(Cl)cc2)SC1=NN=CC1=CCC2CC1C2(C)C (stereo not shown) [C7, 5–(4-Chlorobenzylidene)-2-(((6,6-dimethylbicyclo[3.1.1]hept-2-en-2-yl)methylene) hydrazineylidene)-3-methylthiazolidin-4-one] | 33.4 ± 0.77 µM | > 50 µM | > 50 µM | 36.8 ± 0.43 µM | – | – | – | –
CCN(CC)c1ccc(C=C2SC(=NN=CC3=CCC4CC3C4(C)C)N(C)C2=O)cc1 (stereo not shown) [C8, 5–(4-(Diethylamino)benzylidene)-2-(((6,6-dimethylbicyclo[3.1.1]hept-2-en-2-yl)methylene) hydrazineylidene)-3-methylthiazolidin-4-one] | 38.1 ± 0.78 µM | 42.2 ± 0.46 µM | > 50 µM | 27.2 ± 0.62 µM | – | – | – | –
Cc1ccc(O)c(C=C2SC(=NN=CC3=CCC4CC3C4(C)C)N(C)C2=O)c1 (stereo not shown) [C9, 2-(((6,6-Dimethylbicyclo[3.1.1]hept-2-en-2-yl)methylene)hydrazineylidene)-5–(2-hydroxy-5-methylbenzylidene)-3-methylthiazolidin-4-one] | 32.11 ± 0.21 µM | 34.1 ± 0.57 µM | > 50 µM | 36.7 ± 0.32 µM | – | – | – | –
CN1C(=O)C(=Cc2ccc(O)c(Cl)c2)SC1=NN=CC1=CCC2CC1C2(C)C (stereo not shown) [C10, 5–(3-Chloro-4-hydroxybenzylidene)-2-(((6,6-dimethylbicyclo[3.1.1]hept-2-en-2-yl)methylene)hydrazineylidene)-3-methylthiazolidin-4-one] | 8.69 ± 0.17 µM | 9.86 ± 0.09 µM | > 50 µM | 8.29 ± 0.78 µM | – | – | – | –
COc1ccc(C=C2SC(=NN=CC3=CCC4CC3C4(C)C)N(C)C2=O)cc1O (stereo not shown) [C11, 2-(((6,6-Dimethylbicyclo[3.1.1]hept-2-en-2-yl)methylene)hydrazineylidene)-5–(3-hydroxy-4-methoxybenzylidene)-3-methylthiazolidin-4-one] | 12 ± 0.15 µM | 13.6 ± 0.21 µM | > 50 µM | 14.8 ± 0.1 µM | – | – | – | –
CCOc1cc(C=C2SC(=NN=CC3=CCC4CC3C4(C)C)N(C)C2=O)ccc1O (stereo not shown) [C12, 2-(((6,6-Dimethylbicyclo[3.1.1]hept-2-en-2-yl)methylene)hydrazineylidene)-5–(3-ethoxy-4-hydroxybenzylidene)-3-methylthiazolidin-4-one] | 7.1 ± 0.51 µM | 9.37 ± 0.35 µM | > 50 µM | 8.01 ± 0.79 µM | – | – | – | –
COc1ccc(C=C2SC(=NN=CC3=CCC4CC3C4(C)C)N(C)C2=O)c(O)c1 (stereo not shown) [C13, 2-(((6,6-Dimethylbicyclo[3.1.1]hept-2-en-2-yl)methylene)hydrazineylidene)-5–(2-hydroxy-4-methoxybenzylidene)-3-methylthiazolidin-4-one] | 5.54 ± 0.98 µM | 5.71 ± 0.23 µM | > 50 µM | 6.65 ± 0.75 µM | – | – | – | –
CN1C(=O)/C(=C\c2ccc(O)cc2F)SC1NN=CC1=CCC2CC1C2(C)C (stereo not shown) [C14, 2–(2-((6,6-Dimethylbicyclo[3.1.1]hept-2-en-2-yl)methylene)hydrazineyl)-5-((E)-2-fluoro-4-hydroxybenzylidene)-3-methylthiazolidin-4-one] | 14.8 ± 0.34 µM | 14.4 ± 0.73 µM | > 50 µM | 11.6 ± 0.89 µM | – | – | – | –
Cc1cc(O)ccc1/C=C1/SC(NN=CC2=CCC3CC2C3(C)C)N(C)C1=O (stereo not shown) [C15, 2–(2-((6,6-Dimethylbicyclo[3.1.1]hept-2-en-2-yl)methylene)hydrazineyl)-5-((E)-4-hydroxy-2-methylbenzylidene)-3-methylthiazolidin-4-one] | 7.63 ± 0.65 µM | 9.12 ± 0.43 µM | > 50 µM | 9.01 ± 0.34 µM | – | – | – | –
Cc1cc(/C=C2/SC(NN=CC3=CCC4CC3C4(C)C)N(C)C2=O)ccc1O (stereo not shown) [C16, 2–(2-((6,6-Dimethylbicyclo[3.1.1]hept-2-en-2-yl)methylene)hydrazineyl)-5-((E)-4-hydroxy-3-methylbenzylidene)-3-methylthiazolidin-4-one] | 6.63 ± 0.32 µM | 5.83 ± 0.56 µM | > 50 µM | 7.14 ± 0.11 µM | – | – | – | –
COc1cc(O)ccc1/C=C1/SC(NN=CC2=CCC3CC2C3(C)C)N(C)C1=O (stereo not shown) [C17, 2–(2-((6,6-Dimethylbicyclo[3.1.1]hept-2-en-2-yl)methylene)hydrazineyl)-5-((E)-4-hydroxy-2-methoxybenzylidene)-3-methylthiazolidin-4-one] | 5.1 ± 0.26 µM | 9.18 ± 0.2 µM | > 50 µM | 6.23 ± 0.41 µM | – | – | – | –
